Here are results for 5 molecules from PMC6315057, “Industrial scale high-throughput screening delivers multiple fast acting macrofilaricides” (Nature Communications, 2019).

In brackets after ≈: the same amount, converted by molar mass. Like-named read-outs stand apart in the source and are kept apart here.

The test system of data set [1] is Wolbachia within Brugia malayi Mf. Nature of the data set: B. malayi microfilarial (Mf) in vitro anti-Wolbachia assay (wsp:gst qPCR). Format: cell-based. (Quantitative PCR measures a nucleic acid by following its amplification.)
Data set [2] relates to THP-1 cells. Nature of the data set: Mammalian cell viability counter-screen (CellTiter-Blue). Format: cell-based, human. Particulars: Homo sapiens, 48 h, read-out: HTS IC50 mammalian toxicity. As for the experimental part:
The human monocytic THP-1 cell line (ATCC® TIB-202) used for mammalian cytotoxicity evaluation was routinely cultured in roller bottles. Growth media consisted of RPMI 1640 supplemented with 10% FBS and 2 mM L-glutamine. Cells were maintained at 37 °C with 95% humidity in 5% CO2 in a shaking incubator.
All compounds selected for secondary IC50 screen were tested in parallel for mammalian cell viability using the CellTiter-Blue® Cell Viability Assay. THP1 cells were removed from culture and plated at 1 × 10^4 cells/well (40 µl) into 384-well assay ready plates and incubated at 37 °C, 5% CO2 for 48 h at 95% humidity. After the addition of CellTiter-Blue Viability reagent (8 µl of a 1:6 dilution) the assay plates were incubated for a further 2 h before fluorescence detected using a PerkinElmer EnVision™ plate reader.
On the technique in general: The purpose of a counterscreen is to sort out artefacts and off-target activity.

A short description of data set [3]: Aqueous solubility in pH 7.4 PBS. Particulars: for solubility: PBS pH 7.4, aqueous buffer, pH 7.4 PBS, read-out: Aqueous solubility in pH7.4 PBS. Format: physicochemical. An excerpt:
(§1) The DMPK data used for triaging compounds, including LogD7.4, aqueous solubility, plasma protein binding, microsome and hepatocyte clearance measurements, were generated using the standard AstraZeneca UK high-throughput platform[37],[38].

Data set [4] is described as follows: Human microsome clearance. Particulars: for microsomal CLint: human, human microsomes. Format: in vitro ADME.
From the text: as §1

Data set [5] is described as follows: Rat hepatocyte clearance. Format: in vitro ADME.
From the text: as §1

Data set [6] has as its system Wolbachia in C6/36 (wAlbB) cells. Nature of the data set: Secondary concentration response HTS (IC50) anti-Wolbachia screen in C6/36 (wAlbB) insect cells. The format is cell-based, Wolbachia pipientis wAlbB (in Aedes albopictus C6/36 cells). Particulars: Wolbachia, 168 h, 7-day incubation, 10-point concentration range. As for the experimental part:
Initially C6/36 (wAlbB) cells (insect cells stably infected with the Wolbachia target) from a single cryopreserved batch were recovered over 7 days prior to plating into 384-well assay ready plates (containing the test compounds), using a semi-automated process allowing for daily batches of ~150 plates, set up 4 days per week for 8 weeks. After a 7-day incubation period with the test compounds the plates were moved into the second fully automated stage (using the Agilent Technologies BioCel system) involving formaldehyde fixation, DNA staining of the insect cell nuclei (Hoechst) for toxicity analysis and antibody staining specific to the intracellular Wolbachia (wBmPAL primary antibody and far-red secondary antibody). In the final stage the fixed and stained plates from stage 2 were processed through automated data acquisition (High Res Biosolutions system, incorporating EnVision™ and acumen® plate readers). This industry standardised assay was then used to screen AstraZeneca’s full library of 1.3 million compounds within 10 weeks. In total this HTS included 30 × 3 week assays covering 3835 × 384-well plates. This primary HTS generated 20,255 hits defined as >80% reduction in Wolbachia with <60% toxicity to the host insect cell (eliminating false positives). This represents an overall hit rate of 1.56%. These compounds are depicted in chemical space in Fig. 2 (black points)[21].
The mosquito (Aedes albopictus) derived cell line C6/36 (ATCC® CRL 1660), stably infected with Wolbachia pipientis wAlbB (C6/36(wAlbB)), was maintained in Leibovitz L15 medium containing 2 mM L-glutamine, 1% nonessential amino acids, 2% tryptose phosphate broth and 20% heat-inactivated foetal bovine serum (FBS) at 26 °C[18]. This screen exclusively used cells from the large-scale cryopreserved batch produced as part of this campaign by culturing the cells at scale before cryopreservation (90% FBS and 10% DMSO). This produced a cell bank of 190 × 1 ml cryovials containing 3 × 10^7 cells per vial.
On day 0, a single cryovial was recovered and the cells washed before being transferred to a T225 cm^2 flask. After a 7-day recovery Wolbachia infection level (quality control (QC)) was checked by SYTO®11 DNA staining of both the host cell nuclei and intracellular Wolbachia. The end-point read out from the Operetta® high content imaging system (Perkin Elmer) was the percentage of cells infected with Wolbachia. This was obtained from cytoplasm texture analysis by the associated Harmony® software. Cells with a >50% of the population infected with Wolbachia were classed as having a good Wolbachia level and therefore used for screening through addition of 2000 cells per well into assay ready 384-well plates containing the test compounds. […] Each plate included on-board controls; vehicle/DMSO (total/maximum Wolbachia signal) or doxycycline 5 µM (null/minimum Wolbachia signal), resulting in single shot screening of 352 compounds per plate for the primary screen. […] QC plates were also created including full columns of the following controls; DMSO (total/max), 5 μM doxycycline (null/min), as well as 50 nM doxycycline (reference/medium Wolbachia signal). Daily batches contained ~150 compound plates in addition to the QC plates. Each compound plate was foil sealed before incubation for 7 days at 26 °C, 95% humidity and atmospheric air.
After 7 days of drug incubation, the plates were loaded into the fully automated BioCel system which performed the following additions; fixation and DNA staining (1.8% formaldehyde + 0.6 µg/ml Hoechst 33342, 20 min), permeabilisation (80 μl of PBS + 0.25% Triton-X 100, 30 min), blocking (PBS + 6% BSA, 40 min), overnight incubation in the Wolbachia-specific anti-wBmPAL primary antibody[34] […]

The mark [7] stands for this setting: Brugia malayi, 144 h, B. malayi Mf, 6 days, read-out: Mf EC50.
[8] abbreviates: category bounds in the picture of Fig. 4, read-out: Mf EC50 (category given in Fig. 4).

`Cc1nccc(N2CCC(C(=O)N(C)CCN(C)S(=O)(=O)c3ccc(Br)cc3)CC2)n1` [1A, N-(2-((4-bromo-N-methylphenyl)sulfonamido)ethyl)-N-methyl-1-(2-methylpyrimidin-4-yl)piperidine-4-carboxamide]: the concentration giving a half-maximal response (EC50) (in general, the concentration that produces a half-maximal response) in data set [1] (setting [7]) is ~161 nM; in data set [1] (setting [8]) it was < 200 nM. The IC50 (commonly the concentration that inhibits the measured activity by half) was > 30600 nM in data set [2] and 184 nM in data set [6]. In addition, the solubility (commonly the concentration that dissolves in the medium under given conditions) in data set [3] is 663 µM (≈ 338 µg/mL). Besides, the microsomal CLint (in general, the rate of metabolic loss divided by the concentration) in data set [4] is 211 µL/min/mg. For the same molecule, in data set [5], the “Rat hepatocytes CLint” value turned out to be 31.1 µl/min/1x106 cells.
For `COc1ccc(CC(=O)Nc2[nH]nc(C)c2-c2ccccc2)c(Cl)c1` [2A, 2-(2-chloro-4-methoxyphenyl)-N-(3-methyl-4-phenyl-1H-pyrazol-5-yl)acetamide], the concentration for a half-maximal effect (EC50) in data set [1] (setting [7]) was 164 nM; in data set [1] (setting [8]), < 200 nM. In addition, the IC50 is > 30600 nM in data set [2] and 2390 nM in data set [6]. For the same molecule, in data set [3], the solubility was 71 µM (≈ 25.3 µg/mL). This molecule also displayed a microsomal CLint in data set [4] of 41.2 µL/min/mg. Moreover, the “Rat hepatocytes CLint” value in data set [5] is 262.8 µl/min/1x106 cells.
On to `CC1COCCN1c1cc(OCc2ccccc2)nc(-c2nccn2C)n1` (centres unmarked) [3A, 4-(6-(benzyloxy)-2-(1-methyl-1H-imidazol-2-yl)pyrimidin-4-yl)-3-methylmorpholine], for which the values for the half-maximal effective concentration (EC50) in data set [1] (setting [7]) and in data set [1] (setting [8]) were ~183 nM and < 200 nM, respectively. In addition, the half-maximal inhibitory concentration (IC50) in data set [2] is > 30600 nM; in data set [6] it was 968 nM. Also, the solubility in data set [3] was found to be 538 µM (≈ 197 µg/mL). The molecule further had a microsomal CLint in data set [4] of 59.7 µL/min/mg. In data set [5], the “Rat hepatocytes CLint” value is 147.0 µl/min/1x106 cells.
For `CCc1ccc(CN2CCCC2c2nc(C(=O)N(C)C)cs2)s1` (centres unmarked) [4A, 2-(1-((5-ethylthiophen-2-yl)methyl)pyrrolidin-2-yl)-N,N-dimethylthiazole-4-carboxamide], the “Mf in vitro potency (in words)” value in data set [1] is listed as “good”. The 50% effective concentration (EC50) in data set [1] (setting [7]) is ~219 nM; in data set [1] (setting [8]), 200 to 1000 nM. Further, the half-maximal inhibitory concentration (IC50) in data set [2] is > 30600 nM; in data set [6], 145 nM. The “Solubility (in words)” value in data set [3] was “excellent”. Further, in data set [3], the solubility was > 1000 µM. Besides, the “Human microsomal stability (in words)” value in data set [4] is listed as “poor”. In data set [4], this molecule returned an intrinsic clearance (microsomal CLint) of 92 µL/min/mg. For the same molecule, the “Rat hepatocytes CLint” value in data set [5] is > 300 µl/min/1x106 cells.
Turning to `Cc1nc(C(=O)NC(C)c2ccc(F)cc2)c(NC(=O)Cc2ccccc2)[nH]1` (centres unmarked) [5A, N-(1-(4-fluorophenyl)ethyl)-2-methyl-5-(2-phenylacetamido)-1H-imidazole-4-carboxamide], the “Mf in vitro potency (in words)” value in data set [1] is “comparatively good”. In addition, the results for the EC50 in data set [1] (setting [7]) and in data set [1] (setting [8]) were ~271 nM and 200 to 1000 nM, respectively. Also, the figures for the IC50 in data set [2] and in data set [6] were > 30600 nM and 594 nM, respectively. Further, the “Solubility (in words)” value in data set [3] is on record as “lower”. Besides, the solubility in data set [3] was determined as 12 µM (≈ 4.57 µg/mL). In addition, in data set [4], the microsomal CLint amounted to 39.5 µL/min/mg. In data set [4] (in vitro, system not given), the “Metabolic stability (in words)” value is on record as “moderate”. Further, the “Rat hepatocytes CLint” value in data set [5] is 8.0 µl/min/1x106 cells.
